Test system: bESC lines Alp 0501 and Alp 0505
Assay: bESC differentiation to mesoderm, qPCR of Oct4 and Brachyury
Assay type: cell-based, bovine
Conditions: 8 μM CHIR 99021 added to Essential 6 medium, aggregates expanded three days, FIG. 5
Experimental: Quantitative PCR (qPCR) analysis was performed as follows: • 1. Total RNA was extracted from the cells using GeneJET RNA purification kit (Thermo Fisher Scientific). • 2. Reverse transcription was carried out with RevertAid First Strand cDNA Synthesis Kit (Thermo Fisher Scientific). 3. Quantitative PCR (qPCR) was performed to analyze expression of specific genes using specific primers designed for use in probe-based detection method. • 4. All expression data were normalized to beta-actin. Relative quantification of fold change was calculated using the comparative Ct (ΔΔCt) method. Initial differentiation of bESC to mesoderm: • 1. Cells were harvested and seeded for aggregates formation in 6-well plates as detailed in example 4 below. • 2. The initial conditions were: • a. bESC in the growth medium mTeSR1 (StemCell technologies) • b. bESC in the growth medium Essential 8 (Thermo Fisher Scientific) • 3. Four days after seeding, the medium was replaced to form the following conditions: • a. Medium of bESC aggregates formed in mTeSR1 remained. • b. Medium of bESC aggregates formed in Essential 8 medium was replaced to Essential 6 medium (Thermo Fisher Scientific) • Or— • c. Medium of bESC aggregates formed in Essential 8 medium was replaced to Essential 6 supplemented with 8 μM CHIR 99021. • 4. […]

`Cc1cnc(-c2cnc(NCCNc3ccc(C#N)cn3)nc2-c2ccc(Cl)cc2Cl)[nH]1` [CHIR 99021, 6-[[2-[[4-(2,4-Dichlorophenyl)-5-(5-methyl-1H-imidazol-2-yl)-2-pyrimidinyl]amino]ethyl]amino]-3-pyridinecarbonitrile] was tested, and the “Brachyury expression (initial mesoderm marker)” value was “increase” and the “Oct4 expression (pluripotency marker)” value was “additional decrease”.

From patent US12247216B2, “Pluripotent cell aggregates and use thereof” (ALEPH FARMS LTD., priority 2019, dated 2025)
